For assay [1], the system named is KG-1 and HL-60R leukemia and MDA-MB-231 breast cancer cells. The settings on record: cited from earlier work.
In assay [2] the test system is Human prostate carcinoma PC3. Briefly: Cytotoxicity test (sulphorodamine B), PC3. It is filed as cell-based. The settings on record: 24 h incubation, survival 48 h after removal, read-out: IC50. An excerpt:
(§1) Different cell lines deriving from solid tumors were also used. • 1. Human prostate carcinoma PC3 and DU145. These cell lines were maintained in RPMI 1640 medium containing 10% FCS, 1% sodium pyruvate and 1% glutamine; • 2. Human colon adenocarcinoma LoVo. This cell line was maintained in HAM's F-12 medium, containing 10% FCS and 1% glutamine. • 3. Human ovarian carcinoma such as A2780 and A2780/Dx, sensitive and resistant to drugs, respectively (doxorubicin, taxol, etoposide, vincristine); IGROV-1 and IGROV-1/Pt, sensitive and resistant to platinum-based chemotherapy, respectively, were maintained in RPMI 1640 medium containing 10% FCS, 1% sodium pyruvate and 1% glutamine; • 4. Human melanoma MeWo and MeS 2.21, glioblastoma GBM, no small cell lung carcinomas A431, NCI—H460, osteosarcomas SAOS and U2OS were maintained in RPMI 1640 medium containing 10% FCS, 1% sodium pyruvate and 1% glutamine.
(§2) The cytotoxicity tests were carried out using NB4 or HL-60 cells in suspension (10000/well). The cells were seeded in a volume of 250 μl in 96 well plates and incubated for 24 hours at 37° C. […] The optical density was measured using a Multiskan spectrophotometer at 540 nm. […]
(§3) Cell survival was determined by incubation with ST1926 for 24 hours, 48 hours after the removal of the compound. […]

The subject of assay [3] is Human ovarian carcinoma IGROV-1. In words: Cytotoxicity test (sulphorodamine B), IGROV-1. It counts as cell-based. The settings on record: 24 h incubation, survival 48 h after removal.
Description: as §1, §2, §3

In assay [4] the test system is HL60 acute promyelocytic leukaemia cell line. Briefly: Cytotoxicity test (sulphorodamine B), HL-60. It counts as cell-based. The settings on record: Homo sapiens, 24 h incubation, survival 48 h after removal.
Description: To carry out the cytotoxicity tests, two acute promyelocytic leukaemia (APL) cell lines were used. • 1. Cell line NB4, carrying the chromosomal translocation t(15; 17) which generates the fusion protein PML/RARα. This cell line is extremely sensitive to the differentiating action of pharmaceutical doses of ATRA (10^−7-10^−6 M); • 2. Cell line HL60, which responds to ATRA less sensitively with respect to cell line NB4.
These cell lines were maintained in RPMI 1640 containing 10% foetal calf serum (FCS) and 1% glutamine.
The cytotoxicity tests were carried out using NB4 or HL-60 cells in suspension (10000/well). The cells were seeded in a volume of 250 μl in 96 well plates and incubated for 24 hours at 37° C. The following day, test compound ST 1926 [(2E)-3-[3′-(1-Adamantyl)-4′-hydroxy[1,1′-biphenyl]-4-yl]-2-propenoate/ic acid] was added at increasing concentrations, and the cells were incubated for a further 24 hours at 37° C. in a humidified atmosphere containing 5% CO2. On the 3rd day, the medium was removed by centrifuging the plate at 1600×g for 10 min and the supernatant decanted. […] The optical density was measured using a Multiskan spectrophotometer at 540 nm.
as §3

Turning to `O=C(O)/C=C/c1ccc(-c2ccc(O)c(C34CC5CC(CC(C5)C3)C4)c2)cc1` [ST1926, E-4-(3-(1-adamantyl)-4-hydroxyphenyl)cinnamic acid], the “induction of cancer cell apoptosis (in words)” value in assay [1] was “effectively induced cancer cell apoptosis”. Further, the figures for the IC50 in assay [2], in assay [3] and in assay [4] were 210 nM, 230 nM and 200 nM, respectively.

The values above are taken from patent publication US7449495B2, “Retinoid derivatives with antiangiogenic, antitumoral and proapoptotic activities” (Sigma-Tau Industrie Farmaceutiche Riunite S.p.A., priority 2001, dated 2008).
